Assay results as given in US11352354B2, “Substituted penta-fused hexa-heterocyclic compounds, preparation method therefor, drug combination and use thereof” (Xiamen University, priority 2017, dated 2022).
Marks after values point to notes of the source that are not given here.

Legend:
[1] = tested on: MDA-MB-231 cells; test: Vacuolation of MDA-MB-231 cells caused by inhibition of compounds on PIKfyve (microscopy); assay type: cell-based; conditions: MDA-MB-231 cells
Text: I. Determination of Vacuolation of MDA-MB-231 Cells Caused by Inhibition of Compounds on PIKfyve
When the activity of pikfyve kinase is inhibited, vacuoles will be produced in cytoplasm. By observing the number of vacuoles under a microscope, the ability of compounds to inhibit the activity of pikfyve kinase can be known.
1. Cell plating: cells in logarithmic growth phase were made into a single cell suspension, counted with a cell counter and diluted to a cell concentration of about 2×10^5/mL. Then, the cells were inoculated into a 12-well plate, and cultured in a 37° C., 5% CO2 incubator.
3. Vacuolation test: after 24 and 48 hours of culture, photos were taken under an […] to observe the degree of vacuolation.
(In the table, “+” represents the degree of vacuolation; more “+” indicates more obvious vacuolation; “−” represents no vacuolation)

[2] = tested on: JeKo-1 cells; test: Tumor cell growth inhibition by MTS method, JeKo-1; assay type: cell-based; conditions: 5 days of culture; for inhibition at 10 µM / IC50: Homo sapiens, JeKo-1, 120 h; for inhibition at 10 µM: read-out: cell growth inhibition rate of compounds at 10 μM
Protocol: III. Determination of IC50 Value of Compound for Inhibiting Tumor Cell Growth by MTS Method
1. Cell plating: cells in logarithmic growth phase were counted and inoculated in a 96-well plate (20000 cells per well).
2. Administrating agent to cell: 10 mM compound mother solution in DMSO was subjected to 3 fold-gradient dilution, to set 8 concentrations, which were then added to various wells, with three replicates for each concentration, and three blank wells (only culture medium) and three negative controls (containing 0.1% DMSO) on each plate.
3. […] The OD value at 490 nm was measured with microplate reader OD490. The cell growth inhibition rate was calculated by the following formula: Cell growth inhibition rate %=1−(ODexperimental group−ODblank group)/(ODnegative group−ODblank group)×100%
The semi-inhibitory concentration IC50 of the compound acting on cell growth was calculated using GradPad Prism 5 software according to the measured cell growth inhibition rate.
In the following table it lists the IC50 value or the inhibition rates of some compounds at 10 μM against JeKo-1 cells

`Cn1ncc2c(NCc3cccnc3)nc(-c3cccc(NC(=S)Nc4cccc(C(F)(F)F)c4)c3)nc21` [III-b-15] was tested, and the “degree of vacuolation, 1 μM, 24 h” value [1] was “−”, the “degree of vacuolation, 1 μM, 48 h” value [1] was “−” and the “degree of vacuolation, 10 μM, 24 h” value [1] was “+”. The “degree of vacuolation, 10 μM, 48 h” value [1] was “+” and the inhibition at 10 µM [2] was 24.1%.
In the case of `Cc1ccc(NC(=O)c2cccc(C(F)(F)F)c2)cc1Nc1nc(-c2cccnc2)nc2[nH]cnc12` [IV-a-1], the “degree of vacuolation, 1 μM, 24 h” value [1] is reported as “+”, the “degree of vacuolation, 1 μM, 48 h” value [1] is reported as “++” and the “degree of vacuolation, 10 μM, 24 h” value [1] is reported as “+”. The “degree of vacuolation, 10 μM, 48 h” value [1] was “++” and the inhibition at 10 µM [2] was 18.3%.
For `Cc1ccc(C(=O)Nc2cccc(C(F)(F)F)c2)cc1Nc1nc(-c2ccncc2)nc2[nH]cnc12` [IV-a-2], the “degree of vacuolation, 1 μM, 24 h” value [1] was “+”, the “degree of vacuolation, 1 μM, 48 h” value [1] was “++” and the “degree of vacuolation, 10 μM, 24 h” value [1] was “+”. The “degree of vacuolation, 10 μM, 48 h” value [1] was “++” and the inhibition at 10 µM [2] was 19%.
For `Cc1ccc(C(=O)Nc2cccc(C(F)(F)F)c2)cc1Nc1nc(-c2cccnc2)nc2[nH]cnc12` [IV-a-3], the “degree of vacuolation, 1 μM, 48 h” value [1] was “+”, the “degree of vacuolation, 10 μM, 48 h” value [1] was “+” and the inhibition at 10 µM [2] was 16.2%.
For `Cc1ccc(C(=O)Nc2cccc(C(F)(F)F)c2)cc1Nc1nc(-c2cccnc2)nc2c1ncn2C` [IV-b-2], the “degree of vacuolation, 1 μM, 24 h” value [1] was “+”, the “degree of vacuolation, 1 μM, 48 h” value [1] was “+” and the “degree of vacuolation, 10 μM, 24 h” value [1] was “+”. The “degree of vacuolation, 10 μM, 48 h” value [1] was “+” and the IC50 [2] was 7120 nM.
For `Cc1ccc(NC(=O)c2cccc(C(F)(F)F)c2)cc1Nc1nc(-c2cccnc2)nc2c1ncn2C` [IV-b-7], the “degree of vacuolation, 1 μM, 24 h” value [1] was “+”, the “degree of vacuolation, 1 μM, 48 h” value [1] was “+” and the “degree of vacuolation, 10 μM, 24 h” value [1] was “+”. The “degree of vacuolation, 10 μM, 48 h” value [1] was “+” and the inhibition at 10 µM [2] was 19.1%.
In the case of `Cc1ccc(C(=O)Nc2cccc(C(F)(F)F)c2)cc1Nc1nc(-c2cccnc2)nc2cc[nH]c12` [V-a-5], the “degree of vacuolation, 1 μM, 24 h” value [1] is reported as “+++”, the “degree of vacuolation, 1 μM, 48 h” value [1] is reported as “+++” and the “degree of vacuolation, 10 μM, 24 h” value [1] is reported as “++”. For the same molecule, the “degree of vacuolation, 10 μM, 48 h” value [1] was “++” and the IC50 [2] was 3080 nM.
In the case of `Cc1ccc(C(=O)Nc2cccc(C(F)(F)F)c2)cc1Nc1nc(-c2ccncc2)nc2cc[nH]c12` [V-a-6], the “degree of vacuolation, 1 μM, 24 h” value [1] is reported as “++”, the “degree of vacuolation, 1 μM, 48 h” value [1] is reported as “++” and the “degree of vacuolation, 10 μM, 24 h” value [1] is reported as “++”. The “degree of vacuolation, 10 μM, 48 h” value [1] was “++” and the IC50 [2] was 987 nM.
With `Cc1ccc(NC(=O)c2cccc(C(F)(F)F)c2)cc1Nc1nc(-c2cccnc2)nc2ccn(C)c12` [V-b-1] the “degree of vacuolation, 1 μM, 24 h” value [1] was “++”, the “degree of vacuolation, 1 μM, 48 h” value [1] was “++” and the “degree of vacuolation, 10 μM, 24 h” value [1] was “++”. The “degree of vacuolation, 10 μM, 48 h” value [1] was “++” and the inhibition at 10 µM [2] was 12.3%.
For `Cc1ccc(C(=O)Nc2cccc(C(F)(F)F)c2)cc1Nc1nc(-c2ccncc2)nc2ccn(C)c12` [V-b-4], the “degree of vacuolation, 1 μM, 24 h” value [1] was “++”, the “degree of vacuolation, 1 μM, 48 h” value [1] was “++” and the “degree of vacuolation, 10 μM, 24 h” value [1] was “++”. The “degree of vacuolation, 10 μM, 48 h” value [1] was “++” and the inhibition at 10 µM [2] was 17.2%.
In the case of `Cc1ccc(C(=O)Nc2cccc(C(F)(F)F)c2)cc1Nc1nc(-c2cccnc2)cn2ccnc12` [VI-a-2], the “degree of vacuolation, 1 μM, 24 h” value [1] is reported as “+”, the “degree of vacuolation, 1 μM, 48 h” value [1] is reported as “+” and the “degree of vacuolation, 10 μM, 24 h” value [1] is reported as “+”. For the same molecule, the “degree of vacuolation, 10 μM, 48 h” value [1] was “+” and the “cell growth inhibition rate of compounds at 10 μM” value [2] was 38.6%^a.
With `Cc1ccc(C(=O)Nc2cccc(C(F)(F)F)c2)cc1Nc1nc(-c2cccnc2)cn2ccnc12` [VI-a-6] the “degree of vacuolation, 1 μM, 24 h” value [1] was “−”, the “degree of vacuolation, 10 μM, 24 h” value [1] was “−” and the “cell growth inhibition rate of compounds at 10 μM” value [2] was 11.3%^a.
With `Cc1ccc(NC(=O)c2cccc(C(F)(F)F)c2)cc1Nc1nc(-c2cccnc2)cn2c(C)cnc12` [VI-b-7] the “degree of vacuolation, 1 μM, 24 h” value [1] was “−”, the “degree of vacuolation, 1 μM, 48 h” value [1] was “−” and the “degree of vacuolation, 10 μM, 24 h” value [1] was “+”. The “degree of vacuolation, 10 μM, 48 h” value [1] was “+” and the inhibition at 10 µM [2] was 16.5%.
In the case of `Cc1ccc(Nc2nc(-c3cccc(NC(=O)c4cccc(C(F)(F)F)c4)c3)nc3ccsc23)cn1` [VII-a-15], the “degree of vacuolation, 1 μM, 24 h” value [1] is reported as “+”, the “degree of vacuolation, 1 μM, 48 h” value [1] is reported as “+” and the “degree of vacuolation, 10 μM, 24 h” value [1] is reported as “+”. The “degree of vacuolation, 10 μM, 48 h” value [1] was “+” and the IC50 [2] was 2670 nM.
For `Cc1ccc(Nc2nc(-c3cccc(NC(=O)c4ccc(N)nc4)c3)nc3ccsc23)cn1` [VII-a-16], the “degree of vacuolation, 1 μM, 24 h” value [1] was “+”, the “degree of vacuolation, 1 μM, 48 h” value [1] was “+” and the “degree of vacuolation, 10 μM, 24 h” value [1] was “+”. For the same molecule, the “degree of vacuolation, 10 μM, 48 h” value [1] was “+” and the IC50 [2] was 824 nM.
For `Cc1ccc(Nc2nc(-c3cccc(NC(=O)c4ccc(N)nc4)c3)nc3ccsc23)nc1` [VII-a-17], the “degree of vacuolation, 1 μM, 24 h” value [1] was “−”, the “degree of vacuolation, 1 μM, 48 h” value [1] was “−” and the “degree of vacuolation, 10 μM, 24 h” value [1] was “−”. The “degree of vacuolation, 10 μM, 48 h” value [1] was “−” and the IC50 [2] was 1150 nM.
With `Cc1ccnc(Nc2nc(-c3cccc(NC(=O)c4cccc(C(F)(F)F)c4)c3)nc3ccsc23)c1` [VII-a-18] the “degree of vacuolation, 1 μM, 24 h” value [1] was “+”, the “degree of vacuolation, 1 μM, 48 h” value [1] was “+” and the “degree of vacuolation, 10 μM, 24 h” value [1] was “+”. For the same molecule, the “degree of vacuolation, 10 μM, 48 h” value [1] was “+” and the IC50 [2] was 2560 nM.
For `Cc1ccnc(Nc2nc(-c3cccc(NC(=O)c4ccc(N)nc4)c3)nc3ccsc23)c1` [VII-a-19], the “degree of vacuolation, 1 μM, 24 h” value [1] was “−”, the “degree of vacuolation, 1 μM, 48 h” value [1] was “−” and the “degree of vacuolation, 10 μM, 24 h” value [1] was “−”. For the same molecule, the “degree of vacuolation, 10 μM, 48 h” value [1] was “−” and the IC50 [2] was 1520 nM.
`O=C(Nc1cccc(Nc2cc(-c3cccnc3)nc3sccc23)c1)c1cccc(C(F)(F)F)c1` [VIII-a-1] was tested, and the “degree of vacuolation, 1 μM, 24 h” value [1] was “++”, the “degree of vacuolation, 1 μM, 48 h” value [1] was “++” and the “degree of vacuolation, 10 μM, 24 h” value [1] was “++”. For the same molecule, the “degree of vacuolation, 10 μM, 48 h” value [1] was “++” and the IC50 [2] was 2710 nM.
With `O=C(Nc1cccc(Nc2cc(-c3ccncc3)nc3sccc23)c1)c1cccc(C(F)(F)F)c1` [VIII-a-2] the “degree of vacuolation, 1 μM, 24 h” value [1] was “++”, the “degree of vacuolation, 1 μM, 48 h” value [1] was “++” and the “degree of vacuolation, 10 μM, 24 h” value [1] was “++”. For the same molecule, the “degree of vacuolation, 10 μM, 48 h” value [1] was “++” and the IC50 [2] was 3260 nM.
For `Cc1ccc(NC(=O)c2cccc(C(F)(F)F)c2)cc1Nc1cc(-c2cccnc2)nc2sccc12` [VIII-a-3], the “degree of vacuolation, 1 μM, 24 h” value [1] was “++”, the “degree of vacuolation, 1 μM, 48 h” value [1] was “++” and the “degree of vacuolation, 10 μM, 24 h” value [1] was “++”. The “degree of vacuolation, 10 μM, 48 h” value [1] was “++” and the IC50 [2] was 2010 nM.
For `Cc1ccc(NC(=O)c2cccc(C(F)(F)F)c2)cc1Nc1cc(-c2ccncc2)nc2sccc12` [VIII-a-4], the “degree of vacuolation, 1 μM, 24 h” value [1] was “+”, the “degree of vacuolation, 1 μM, 48 h” value [1] was “+” and the “degree of vacuolation, 10 μM, 24 h” value [1] was “+”. The “degree of vacuolation, 10 μM, 48 h” value [1] was “+” and the inhibition at 10 µM [2] was 17.3%.
With `O=C(Nc1cccc(C(F)(F)F)c1)c1cccc(Nc2cc(-c3cccnc3)nc3sccc23)c1` [VIII-a-5] the “degree of vacuolation, 1 μM, 24 h” value [1] was “−”, the “degree of vacuolation, 1 μM, 48 h” value [1] was “+” and the “degree of vacuolation, 10 μM, 24 h” value [1] was “+”. The “degree of vacuolation, 10 μM, 48 h” value [1] was “+” and the IC50 [2] was 5140 nM.
With `O=C(Nc1cccc(C(F)(F)F)c1)c1cccc(Nc2cc(-c3ccncc3)nc3sccc23)c1` [VIII-a-6] the “degree of vacuolation, 1 μM, 24 h” value [1] was “+”, the “degree of vacuolation, 1 μM, 48 h” value [1] was “+” and the “degree of vacuolation, 10 μM, 24 h” value [1] was “+”. The “degree of vacuolation, 10 μM, 48 h” value [1] was “+” and the IC50 [2] was 6320 nM.
For `Cc1ccc(C(=O)Nc2cccc(C(F)(F)F)c2)cc1Nc1cc(-c2cccnc2)nc2sccc12` [VIII-a-7], the “degree of vacuolation, 1 μM, 24 h” value [1] was “++”, the “degree of vacuolation, 1 μM, 48 h” value [1] was “++” and the “degree of vacuolation, 10 μM, 24 h” value [1] was “+++”. For the same molecule, the “degree of vacuolation, 10 μM, 48 h” value [1] was “+++” and the IC50 [2] was 3170 nM.
